Converted amounts (≈) assume the structure as drawn. Marks after values point to notes of the source that are not given here.
Tests used:
[1] = tested on: mice leukopenia models (peripheral blood leukocytes); assay: Cyclophosphamide-induced mice leukopenia model, leukocyte counts; type: in vivo, male Balb/C mice; details: for Leukocyte Level, End of treatment: 30 mg/kg intragastric once daily for 28 days, Day 29; for Leukocyte Level, End of treatment / Leukocyte Level, Before modeling / Leukocyte Level, After modeling: X ± S; for Leukocyte Level, Before modeling / Leukocyte Level, After modeling: 30 mg/kg intragastric once daily; for Leukocyte Level, Before modeling: Day 7 after drug administration; for Leukocyte Level, After modeling: Day 15, cyclophosphamide 25 mg/kg i.p. Day 8 to Day 14; for effect on leucocyte level compared to the leucogen crystalline form C group / leucocyte levels after treatment, compared to the model control group: 30 mg/kg, after treatment, P<0.05
Experimental: A total of 100 male Balb/C mice with the body weight ranging from 22 g to 24 g were randomly selected and randomly divided into the following five groups: the normal control group, the model control group, the leucogen crystalline form A group, the leucogen crystalline form B group, and the leucogen crystalline form C group, 20 mice in each group. In the leucogen crystalline forms A, B and C groups, the mice were intragastrically administered with 30 mg/kg once daily for a total of 28 days. In the normal control group and the model control group, the mice were administered with an equal volume of saline once daily for a total of 28 days. In the model control group and the leucogen groups, 25 mg/kg of cyclophosphamide was intraperitoneally injected in the mice at Day 8 to Day 14 respectively to establish mice leukopenia models. Blood samples were collected from the retro-orbital venous sinus of mice before modeling, after modeling, and at the end of drug administration (i.e., Day 7, Day 15, and Day 29 after drug administration) for leukocyte counts, respectively. The experimental data were statistically processed with the SPSS 17.0 software package, and expressed as mean±standard deviation (X±S), where P<0.05 indicated there was a statistical significance.

[2] = Test on saturated solubility in water (HPLC); type: physicochemical; details: for solubility property (compared with crystalline form C): conclusion from water saturation solubility table; for Solubility in 1 h / Solubility in 2 h / Solubility in 18 h: 37° C.
Experimental: Test on Saturated Solubility in Water:
• Chromatographic column: KromasiL C18 4.6*250 mm, 5 m • Column temperature: 30° C. flow rate: 1.0 mL/min sample size: 20 μL detection wavelength: 210 nm • Mobile phase: acetonitrile-water-glacial acetic acid (42:58:0.3) • Formulation of control solution: 10 mg of leucogen as a control product was precisely weighed, put in a 100-mL measuring flask, dissolved with the mobile phase, and diluted to the scale to afford 100 μg/mL of mother solution, and the mother solution was subjected to 10-fold, 100-fold, and 1000-fold serial dilutions to afford solutions at the concentrations of 10 μg/mL, 1 μg/mL, and 0.1 μg/mL, respectively.
Formulation of test solution: about 20 mg of 211118 batch (crystalline form A) and 211124 batch (crystalline form B) of the leucogen samples were weighed, each for 3 copies, and put in six 10-mL test tubes with stoppers respectively; 10 mL of water was added respectively; the test tubes were oscillated under the conditions of 37° C. and 100 r/min for 1 h, 2 h, and 18 h respectively; the resultants were filtered through 0.45-μm microporous filter membranes, and the filtrates were taken as the test solutions.
The control solution and the test solutions were tested under the above chromatographic conditions, separately. The area of the control solution was linearly regressed with its concentration. The saturated solubility in water was obtained from the peak areas of the test solutions.

[3] = TGA/DSC test (thermostability); type: physicochemical; details: for thermostability (compared with crystalline form C): conclusion from TGA/DSC table
Source text: TGA and DSC Test Methods:
TGA and DCS patterns were collected on TA Discovery TGA 5500 thermogravimetric analyzer and TA Discovery DSC 2500 differential scanning calorimeter, respectively.

[4] = listed as Leucogen crystalline form A
[5] = listed as Leucogen crystalline form B
[6] = water, 100 r/min, oscillated 1 h
[7] = water, 100 r/min, oscillated 2 h
[8] = water, 100 r/min, oscillated 18 h
[9] = listed as Leucogen crystalline form C

## CCOC(=O)C(c1ccccc1)C1N[C@H](C(=O)O)CS1 (some centres unmarked)
[1]; [4]
  Leukocyte Level, End of treatment: 9.23 ± 1.42*^Δ 10^9/L
  Leukocyte Level, Before modeling: 9.92 ± 1.59 10^9/L
  Leukocyte Level, After modeling: 3.31 ± 1.43 10^9/L
[1]
  effect on leucocyte level compared to the leucogen crystalline form C group: better effect
  leucocyte levels after treatment, compared to the model control group: significantly increased
[2]
  solubility property (compared with crystalline form C): better than that of the crystalline form C
[2]; water, 37 °C, thermodynamic from solid
  solubility: ≥ 240 µg/mL
[2]; water, 37 °C, thermodynamic from solid, 100 r/min, oscillated 1 h
  solubility at 1 h: 115 µg/mL (≈ 390 µM)
[2]; water, 37 °C, thermodynamic from solid, 100 r/min, oscillated 2 h
  solubility at 2 h: 137 µg/mL (≈ 465 µM)
[2]; water, 37 °C, thermodynamic from solid, 100 r/min, oscillated 18 h
  solubility at 18 h: 241 µg/mL (≈ 816 µM)
[3]; 100° C.
  TGA Weight Loss (%): 3.07 (100° C.) %
[3]
  thermostability (compared with crystalline form C): better than that of the crystalline form C

## CCOC(=O)C(c1ccccc1)C1N[C@H](C(=O)O)CS1 (single isomer, unassigned)
[1]; [5]
  Leukocyte Level, End of treatment: 8.98 ± 1.13*^Δ 10^9/L
  Leukocyte Level, Before modeling: 9.63 ± 0.99 10^9/L
  Leukocyte Level, After modeling: 3.46 ± 1.24 10^9/L
[1]
  effect on leucocyte level compared to the leucogen crystalline form C group: better effect
  leucocyte levels after treatment, compared to the model control group: significantly increased
[2]
  solubility property (compared with crystalline form C): better than that of the crystalline form C
[2]; listed as crystalline form B of leucogen
  solubility in water: ≥ 256 µg/mL
[2]; [6]
  Solubility in 1 h: 161.68 µg/mL (≈ 547 µM)
[2]; [7]
  Solubility in 2 h: 177.41 µg/mL (≈ 601 µM)
[2]; [8]
  Solubility in 18 h: 256.62 µg/mL (≈ 869 µM)
[3]; 150° C.
  TGA Weight Loss (%): 0.46 (150° C.) %
[3]
  thermostability (compared with crystalline form C): better than that of the crystalline form C

## CCOC(=O)C(c1ccccc1)C1N[C@H](C(=O)O)CS1 (single isomer, unassigned) [reference compound]
[1]; [9]
  Leukocyte Level, End of treatment: 6.05 ± 1.56* 10^9/L
  Leukocyte Level, Before modeling: 9.98 ± 1.56 10^9/L
  Leukocyte Level, After modeling: 3.32 ± 0.89 10^9/L
[1]
  leucocyte levels after treatment, compared to the model control group: significantly increased
[2]; [6]
  Solubility in 1 h: 112.64 µg/mL (≈ 381 µM)
[2]; [7]
  Solubility in 2 h: 133.16 µg/mL (≈ 451 µM)
[2]; [8]
  Solubility in 18 h: 227.89 µg/mL (≈ 772 µM)
[3]; 70° C.
  TGA Weight Loss (%): 3.54 (70° C.) %

— patent US20250179037A1 (Jiangsu Jibeier Pharmaceutical Co., Ltd., priority 2021, published 2025)
